The compounds below were run against Phospholipase A2 group V (Homo sapiens) (UniProt P39877) (assay: Inhibition of recombinant human sPLA2-V).
Sequence of Phospholipase A2 group V (Homo sapiens) (P39877 whole entry, looked up): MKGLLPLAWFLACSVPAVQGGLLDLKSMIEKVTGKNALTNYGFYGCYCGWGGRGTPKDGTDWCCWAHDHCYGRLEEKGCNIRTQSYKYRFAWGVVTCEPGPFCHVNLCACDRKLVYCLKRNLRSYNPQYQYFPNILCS
`COc1ccnc(Nc2n[nH]c(N)c2C#N)c1` gave an IC50 of 3.1 µM.
In the case of `COc1ccnc(Nc2nn3c(SC)c(C#N)c(N)nc3c2C#N)c1`, the IC50 is reported as 2.6 µM.
`COc1ccnc(Nc2nn3c(SC)c(C#N)c(O)nc3c2C#N)c1` gave an IC50 of 1 µM.
Compound `COc1ccnc(Nc2nn3c(C)cc(C)nc3c2C#N)c1` has an IC50 of 3.2 µM.
Work on `CCOc1cc(C)nc2c(C#N)c(Nc3cc(OC)ccn3)nn12` yielded an IC50 of 1.7 µM.
In the case of `CCOc1cc(N)n2nc(Nc3cc(OC)ccn3)c(C#N)c2n1`, the IC50 is reported as 3.2 µM.
`C[C@@H]1C[C@H]2[C@@H]3CCC4=CC(=O)C=C[C@]4(C)[C@@]3(F)[C@@H](O)C[C@]2(C)[C@@]1(O)C(=O)CO` [dexamethasone (tetramethyl-rhodamine conjugated )] was tested, and the IC50 was 0.59 µM.

From BindingDB's records for PubMed 36325400 (Prince Sattam Bin Abdulaziz University, 2022)
